Assay results: patent US20160002665A1, “[…] MALE STERILITY IN COMPOSITAE” (priority 2013, published 2016)

Legend:
[1] = tested on: mutant lettuce plant (Lactuca sativa), having a mutated version of the OPR3 gene; assay: Reversal of male sterility by spraying young flower buds of homozygous OPR3 mutant lettuce; format: in vivo; settings: for restoration of male fertility in F2 generation: F2 of cross NCIMB 42060 x wild-type lettuce, treatment as described in Example 1; for seed production through selfing: inflorescences sprayed with 200 μM solution, compared with mock-treated control plants (FIG. 1)
From the text: A mutant lettuce plant (Lactuca sativa), having a mutated version of the OPR3 gene, was obtained by means of chemical mutagenesis and subsequent TILLING screening of about 3,000 M2 plants.
Phenotypically this mutant lettuce plant was indistinguishable from wild-type lettuce plants, when the mutation was present in a heterozygous state. […] The few pollen grains that developed in such homozygous mutants were not functional.
From the early bolting stage the inflorescences were sprayed 5 times per week, for a total of 3 weeks.

[2] = tested on: mutant endive plant (Cichorium endivia), having a mutated version of the OPR3 gene; assay: Reversal of male sterility and pale flower color by treating young flower buds of homozygous OPR3 mutant endive; format: in vivo; settings: for restoration of male fertility in F2 generation: F2 of cross of endive of the invention x wild-type endive, treatment as described in Example 3; for overcoming male sterility caused by the opr3 mutation: homozygous mutant endive, application to flower buds; for flower color of flowers developed from treated flower buds / male fertility (pollen function and seed set through self-pollination): homozygous mutants, daily spraying with 200 μM (0.2 mM) aqueous solution with 0.025% Zipper surfactant; for flower color of flowers developed from treated flower buds: about 3.5 months, untreated or mock-treated flowers pale (FIG. 2); for male fertility (pollen function and seed set through self-pollination): controls remained male-sterile
From the text: A mutant endive plant (Cichorium endivia), having a mutated version of the OPR3 gene, was obtained by means of chemical mutagenesis and subsequent TILLING screening of about 10,000 M2 plants.
Phenotypically this mutant endive plant was indistinguishable from wild-type endive plants, when the mutation was present in a heterozygous state. […] The pollen grains that developed in such homozygous mutants were unable to germinate and therefore dysfunctional.
Blue was the wild-type flower color in this endive background.

[3] = tested on: Arabidopsis thaliana with mutations in the OPR3 gene; settings: treating flower buds; cited from earlier work

In the case of `CC/C=C\CC1C(=O)CCC1CC(=O)OC` (stereo not drawn) [methyl jasmonate], the “restoration of male fertility in F2 generation” value (“restoration … in F2 generation” for short) [1] is reported as “sufficient to restore male fertility”, the “seed production through selfing” value ([1]; homozygous mutants) is reported as “has produced seeds through selfing” and the “seed production through selfing” value ([1]; homozygous mutants, listed as MeJA) is reported as “produced seeds in a subset of their flowers”. The “restoration of male fertility” value ([1]; homozygous mutants, young flower buds sprayed with 200 μM (0.2 mM) aqueous solution plus 0.025% Zipper surfactant, 5 times per week for 3 weeks) was “sufficient to restore male fertility”, the “restoration … in F2 generation” value [2] was “sufficient to restore male fertility” and the “overcoming male sterility caused by the opr3 mutation” value [2] was “could be overcome”. The “flower color of flowers developed from treated flower buds” value [2] was “changed to blue”, the “flower color of flowers developed from treated flower buds” value ([2]; listed as MeJA) was “developed into blue flowers” and the “male fertility (pollen function and seed set through self-pollination)” value [2] was “has become male-fertile”. The “male fertility (pollen function and seed set through self-pollination)” value ([2]; listed as MeJA) was “produced viable, functional pollen and were able to set seed through self-pollination”, the “effect of other application methods than spraying” value ([2]; solution painted onto the surface of young flower buds with a fine brush) was “comparable effects” and the “restoration of male fertility” value [3] was “Male fertility could be restored”.

With `CC/C=C\C[C@H]1C(=O)CC[C@@H]1CC(=O)O` [jasmonic acid, (3R,7S)-jasmonic acid] the “restoration … in F2 generation” value [1] was “sufficient to restore male fertility”, the “restoration … in F2 generation” value [2] was “sufficient to restore male fertility” and the “overcoming male sterility caused by the opr3 mutation” value [2] was “had the same effect”.
